Experiments:
HL-60 leukemia cell line = test: NCI dose-dependent growth inhibition, HL-60; type: cell-based; settings: 48-h exposure, optical density, data provided by NCI
K-562 leukemia cell line = test: NCI dose-dependent growth inhibition, K-562; type: cell-based; settings: 48-h exposure, optical density, data provided by NCI
[1] = tested on: RPMI-8226 leukemia cell line; test: NCI dose-dependent growth inhibition, RPMI-8226; type: cell-based; settings: 48-h exposure, optical density, data provided by NCI
[2] = molecular target: human 20S proteasome (hs20S), trypsin-like activity mediated by the β2 subunit (Homo sapiens, UniProt P49720+Q99436); type: biochemical; settings: Boc-LRR-AMC, Table 2
SR leukemia cell line = test: NCI dose-dependent growth inhibition, SR; type: cell-based; settings: 48-h exposure, optical density, data provided by NCI
[3] = tested on: MOLT-4 leukemia cell line; test: NCI dose-dependent growth inhibition, MOLT-4; type: cell-based; settings: 48-h exposure, optical density, data provided by NCI

syringolin B methyl ester [Compound 1]
GI50 (HL-60 leukemia cell line): 5.41 µM
GI50 (K-562 leukemia cell line): 6.12 µM
GI50 [1]: 3.97 µM
Trypsin-Like Activity kin/Ki [2]: 326 M⁻¹ s⁻¹
GI50 (SR leukemia cell line): 5.13 µM
GI50 [3]: 4.73 µM

From article PMC4562813 (Bioorganic & medicinal chemistry, 2015)
